Test results from patent publication US20200352976A1, “HYPOMETHYLATING AGENTS FOR USE IN TREATMENT OF CANCER” (Otsuka Pharmaceutical Co., Ltd, priority 2019, published 2020).

Tests used:
[1] = system: LINE-1 repeats (global DNA methylation); assay: LINE-1 methylation assay on whole blood (global DNA methylation), Phase 1/2 trial; assay type: in vivo, human
Experimental: Whole-blood samples were collected immediately before treatment, once a week during the first treatment cycle, and then on day 1 of subsequent cycles for demethylation analysis. Global DNA methylation was measured by the long interspersed nuclear element-1 (LINE-1) methylation assay. The LINE-1 assay measures methylation levels of LINE-1 repeats, which serve as a surrogate for global DNA methylation levels. Results of LINE-1 assays were used to assess and changes in methylation from baseline.
Activity and safety endpoints were evaluated for all patients who received at least one dose of study drug, and no patients who received treatment were excluded from the analyses. […] Time to response and duration of response were summarized in days using descriptive statistics. Overall survival was analyzed using the Kaplan-Meier method, with survival time censored on the last date of contact if the patient was alive or lost to follow-up. Blood and platelet transfusion independence were summarized descriptively in the subset of patients who were transfusion-dependent at baseline. Change from baseline LINE-1 methylation and maximum LINE-1 demethylation were also summarized descriptively, with maximum LINE-1 demethylation defined as the largest percent decrease from baseline in methylation values by patient between days 8 and 22 of the first treatment cycle.

[2] = Phase 1/2 trial safety: adverse events, all-cause mortality; assay type: in vivo, human
Source text: Safety was monitored throughout the study by physical examinations and clinical laboratory tests, including hematology, chemistry for liver and renal function, urinalysis, pregnancy tests, pharmacokinetics, epi-genetics, buccal swab, and pharmacogenetic markers. Electrocardiograms were obtained at baseline screening and day 1 of each treatment cycle.
The primary endpoint was overall response, which was a composite of complete response (CR), partial response, marrow complete response (mCR), and hematological improvement. Overall response was assessed by local investigators. Secondary endpoints included the individual components of overall response, time to response, duration of response, overall survival, blood transfusion and platelet transfusion independence at weeks 8 and 16, and safety, including the incidence of adverse events, and all-cause early mortality at 30, 60, and 90 days. Exploratory analyses were done to examine the association between baseline characteristics and overall response.
Treatment-emergent adverse events, which are events that first occurred or worsened after the first dose of study drug until 30 days after the last dose or until the start of an alternative anticancer treatment (whichever occurred first), and all-cause 30-day, 60-day, and 90-day cumulative mortality, were summarized descriptively.

[3] = system: acute myeloid leukemia (TN and relapsed/refractory AML); assay: Phase 2 study in AML (TN and r/r): landmark response and survival analyses; assay type: in vivo, human
Experimental: In a Phase 2 study of 206 AML patients, both treatment naïve (TN), and relapsed/refractory (r/r), patients were treated with Compound I-1 using different doses and schedules. The patients were randomized either to a 5- or 10-day dosing regimen. The patients who were part of the 10-day regimen were given Compound I-1 at 60 mg/m^2/day for 1-4 cycles, then were given the 5-day regimen. The patients who were part of the 5-day regimen were randomized either to the biologically effective dose group (60 mg/m^2 daily) or the highest well tolerated dose group (90 mg/m^2 daily).
Landmark response (CR, CRi, or CRp based on 2003 IWG criteria, grouped together as composite CR or CRc), and overall survival (OS) analyses for patients alive at or beyond month 3 and month 5 (time of planned start of cycle 4 and cycle 6, respectively) were conducted. […] The results in responding and non-responding patients were also compared to see whether survival benefit was restricted to responding patients only.

[4] = system: relapsed/refractory (r/r) AML; assay: Phase 2 study in relapsed/refractory AML: response, duration of response, survival; assay type: in vivo, human; conditions: for CR response rate, % / CRc (CR + CRp + CRi) response rate, % / CRi response rate, % / CRp response rate, % / CRc, %: r/r AML; for CRc, %: all regimens
Experimental: (§1) A Phase 2 study of Compound I-1 using different regimens and doses (randomized 5-day regimen cohorts of 60 mg/m^2/d vs 90 mg/m^2/d SC) and a cohort of 10-day regimen in the first 1-4 cycles at 60 mg/m^2/d followed by subsequent cycles of 5-day regimen) was conducted as described above. Response and duration of response were assessed using IWG 2003 criteria: Complete Response (CR), CR with incomplete platelet recovery (CRp), and CR with incomplete count recovery (CRi). CR+CRp+CRi was defined as composite CR (CRc). Overall survival (OS) was assessed using the Kaplan-Meier (KM) method. Response status for each dose/regimen cohort and the overall treated population were assessed with analyses of duration of response and long-term survival.

[5] = Phase 2 study in relapsed/refractory AML: safety; parameters: species or system human; conditions: in vivo
Experimental: as §1

[6] = 5 Day regimen (60 and 90 mg/m^2), n = 50
[7] = 10 Day regimen (60 mg/m^2), n = 53

Structure (SMILES): Nc1ncn([C@H]2CC(OP(=O)(O)OC[C@H]3O[C@@H](n4cnc5c(=O)[nH]c(N)nc54)CC3O)[C@@H](CO)O2)c(=O)n1 (some centres unmarked) [Compound I-1]
- Mean maximum LINE-1 demethylation ([1]; 60 mg/m^2): 23.9%
- Mean maximum LINE-1 demethylation ([1]; 90 mg/m^2): 28.2%
- Mean maximum LINE-1 demethylation ([1]; relapsed or refractory): 28.9%
- Time of maximum extent of global DNA demethylation ([1]; returned to pretreatment levels by day 28): ~8 days
- Mean maximum LINE-1 demethylation ([1]; treatment-naïve): 28.6%
- Mean maximum LINE-1 demethylation ([1]; with objective treatment response): 28.1%
- Mean maximum LINE-1 demethylation ([1]; without objective treatment response): 29.4%
- Patients who died from serious adverse events ([2]; all treated): Seven
- Drug-related serious adverse event anemia ([2]; human, in vivo): 3%
- Drug-related serious adverse event pneumonia ([2]; human, in vivo): 7%
- Drug-related serious adverse event thrombocytopenia ([2]; human, in vivo): 3%
- 30-day all-cause mortality ([2]; of 102 patients): 1%
- 60-day all-cause mortality ([2]; of 102 patients): 4%
- 90-day all-cause mortality ([2]; of 102 patients): 9%
- Serious adverse events that led to death considered treatment related ([2]; pneumonia with 90 mg/m^2 and septic shock with 60 mg/m^2): two
- Median OS ([3]; landmark, at least 4 cycles): 13.7 m
- CRc rate ([3]; landmark, at least 4 cycles (97 patients)): 62%
- OS HR ([3]; landmark, at least 4 cycles vs not): 0.53
- Median OS ([3]; landmark, at least 6 cycles): 19.9 m
- CRc rate ([3]; landmark, at least 6 cycles (51 patients)): 82.4%
- OS HR ([3]; landmark, at least 6 cycles vs not): 0.42
- Median OS ([3]; landmark, fewer than 4 cycles): 6.1 m
- CRc rate ([3]; landmark, fewer than 4 cycles (64 patients)): 25%
- Median OS ([3]; landmark, fewer than 6 cycles): 8.8 m
- CRc rate ([3]; landmark, fewer than 6 cycles (82 patients)): 35.4%
- Median OS ([3]; no CRc, at least 4 cycles): 8 m
- OS HR ([3]; no CRc, at least 4 cycles vs not): 0.63
- Median OS ([3]; no CRc, at least 6 cycles): 12.9 m
- OS HR ([3]; no CRc, at least 6 cycles vs not): 0.40
- Median OS ([3]; no CRc, fewer than 4 cycles): 5.4 m
- Median OS ([3]; no CRc, fewer than 6 cycles): 8 m
- CR Rate ([4]; 5-day regimen): 8%
- CRc rate ([4]; 5-day regimen): 16%
- CR Rate ([4]; 10-day regimen): 19%
- CRc rate ([4]; 10-day regimen): 30%
- 2-year survival rate ([4]; CR): 57%
- 2-year survival rate ([4]; CRc patients receiving HCT): 50%
- 2-year survival rate ([4]; CRc patients who did not undergo HCT): 60%
- 2-year survival rate ([4]; CRp/CRi): 50%
- CRc ([4]; early relapse (<6 months from prior treatment)): 22%
- CR Composite (CR + CRp + CRi) Duration of Response, median (range) ([4]; in vivo): 7.8 (0.5-30) Months
- Complete Response (CR) Duration of Response, median (range) ([4]; in vivo): 7 (1-29.5) Months
- Post treatment HCT in responders ([4]; in vivo): 58%
- Achieved CRc ([4]; of 19 patients who had prior HCT): 5 patients
- Median OS ([4]; patients who achieved CRc (either CR or CRp/CRi)): has not been reached
- CRc ([4]; patients who relapsed after prior HCT (19 patients)): 26%
- CRc ([4]; patients with poor risk cytogenetics): 19%
- CR response rate, % [4, 6]: (6%)
- CRc (CR + CRp + CRi) response rate, % [4, 6]: (16%)
- CRi response rate, % [4, 6]: (8%)
- CRp response rate, % [4, 6]: (2%)
- CR response rate, % [4, 7]: (19%)
- CRc (CR + CRp + CRi) response rate, % [4, 7]: (30%)
- CRi response rate, % [4, 7]: (4%)
- CRp response rate, % [4, 7]: (7%)
- CRc, % ([4]; subgroup Age (y) <65 (N 63)): (19%)
- CRc, % ([4]; subgroup Age (y) >65 (N 40)): (30%)
- CRc, % ([4]; subgroup Cytogenetics Adverse (N 42)): (19%)
- CRc, % ([4]; subgroup Cytogenetics Diploid (N 21)): (19%)
- CRc, % ([4]; subgroup Cytogenetics Others (N 40)): (30%)
- CRc, % ([4]; subgroup ECOG PS 0-1 (N 89)): (26%)
- CRc, % ([4]; subgroup ECOG PS 2 (N 12)): (7%)
- CRc, % ([4]; subgroup Prior HCT No (N 84)): (23%)
- CRc, % ([4]; subgroup Prior HCT Yes (N 19)): (26%)
- CRc, % ([4]; subgroup Response to Induction CR (N 55)): (15%)
- CRc, % ([4]; subgroup Response to Induction Refractory (N 48)): (25%)
- CRc, % ([4]; subgroup Time From Last Therapy <6 months (N 82)): (22%)
- CRc, % ([4]; subgroup Time From Last Therapy >6 months (N 20)): (30%)
- CRc ([4]; refractory patients): 31%
- Grade 3 or higher AEs related to the drug [5]: 42%
- Related serious AEs leading to death [5]: no related serious AEs leading to death
